This series concerns HeLa cells. Kind of series: MTT assay, HeLa cells under hypoxic conditions (CoCl2). Type of series: cell-based. How it is done:
Taking into consideration the good cytotoxicity of C-4,2 on cancer cells and its ability to stabilise GQ structures also in the cellular environment, we decided to further evaluate its antitumor potential by testing it under hypoxic conditions, when expression of high amounts of CA IX occurs. To this aim, HeLa cells were pre-treated for 60 h with a non-toxic concentration of cobalt(II) chloride hexahydrate (CoCl2, 50 μM, Figure S14, Supporting Information), which was employed as the chemical inducer of HIF-1α to establish hypoxia[70]^,[71]. After that, HeLa were exposed to increasing concentrations of C-4,2 or vehicle, for the following 12 h, still in the presence of CoCl2. […]
For the MTT experiments in the presence of normal oxygen levels, HeLa cells were seeded in 96-well plates at a density of 15,000 cells per well (culture medium volume – 100 μL/well) and incubated at 37 °C, for 24 h. […] Finally, the optical density of the samples (at 570 nm) was measured on an ELx800 Absorbance Microplate Reader (BioTek Instruments, Inc., Winooski, VT, USA). The percentage (%) of cell survival for each condition was calculated by using the following equation: % cell survival=OD− OD0/ODCONTROL− OD0×100 where OD is the optical density of the sample, OD0 is the optical density of the background signal, and ODCONTROL is the optical density of the control sample (cells treated with vehicle, 0.5% DMSO). […]
A general note: Formazan colour is commonly taken as a measure of viable cells.

pIC50: −log10 of the molar value.

In the case of `COc1ccc2cc3[n+](cc2c1OCCCCn1cc(COc2ccc4ccc(=O)oc4c2)nn1)CCc1cc2c(cc1-3)OCO2` [Compound 37, 10-Methoxy-9–(4-(4-(((2-oxo-2H-chromen-7-yl)oxy)methyl)-1H-1,2,3-triazol-1-yl)butoxy)-5,6-dihydro-[1,3]dioxolo[4,5-g]isoquinolino[3,2-a]isoquinolin-7-ium hexafluorophosphate], the “cytotoxicity compared with co-exposure to equimolar berberine and C” value (12 h, hypoxia (CoCl2)) is listed as “greater”. Moreover, the pIC50 (commonly the negative decadic logarithm of the IC50, by convention in mol/L) (Homo sapiens, 60 h pre-treatment with 50 μM CoCl2, then 12 h treatment, hypoxia) was 4.58.

For the origin of these results see paper PMC11195807, “Development of a multi-targeted chemotherapeutic approach based on G-quadruplex stabilisation and carbonic anhydrase inhibition” (Journal of Enzyme Inhibition and Medicinal Chemistry, 2024).
